Data as given in patent US20170298314A1, “NANO-DROPLET PLATE” (Research Foundation of the City University of New York, priority 2016, published 2017).

System: HEK 293 cells
Assay: Penetration of FAM-labeled cell permeable peptide into HEK 293 cells in alginate gel drops, CLSM imaging
Type: cell-based, Human
Details: 15 μg/mL, 5 mins incubation, 1% w/v alginate, 63× oil immersion lens
Description: High resolution observation of reactions between peptides and cells. Not only should proteins and peptides diffuse through the gel, they should also be able to react with cells, for drug screening applications. […] Sodium alginate solution (1% w/v) was mixed with a HEK 293 cell suspension and used as a source solution for single dispensing on 750 μm diameter nDAP anvils using a single robotically controlled rod. The alginate was cured with 1% calcium chloride for 5 min. […] The holder was filled with medium and imaged using a confocal microscope (CLSM). After the cells were imaged, a 15 μg/mL solution of (Arg)9 was introduced using a syringe, displacing the medium. […] The holder enables observation of single cells at high resolution while permitting the exchange of solutions without interfering with the gel anchor on the nDAPs.

Substance: (Arg)9
- penetration into HEK 293 cells through gel: Two cells with cell permeable protein were clearly seen
